Marks after values point to notes of the source that are not given here.
Assays:
mayflies Hexagenia spp. = experiment: 21 d range-finding sediment test, mayflies; type: in vivo; conditions: n = 3
Description: (§1) Range-finding tests of 21 d were completed with juvenile mussels, amphipods and mayflies to assist with the selection of the concentrations to be used in final testing. Nominal concentrations in range-finding tests were 0.1, 1, 10, 100, and 1000 mg/kg, based on dry weight of sediment. Range-finding test conditions were identical to those described in the manuscript for chronic sediment tests with the exception of test duration.
At the end of the test, survival and wet weight of mayflies in each replicate were recorded.

amphipod Hyalella azteca = experiment: Chronic 42-day sediment test with amphipods (survival, growth, reproduction, sex ratio)
Description: Dechlorinated municipal tap water was used for cultures and toxicity tests. Both cultures and toxicity tests were held at 25 °C with a photoperiod of 16 h light:8 h dark, and amphipods were fed finely ground Tetra-Min fish food flakes (Tetra GMBH, Melle, Germany). Juvenile amphipods were removed weekly from breeding containers and used in toxicity tests.
Two tests were conducted for each compound. Amphipods were fed ground Tetra-Min twice per week during weeks 1 and 2, three times during week 3, and 5 mg three times per week during weeks 4 to 6. Surviving adults were counted, weighed as a group, and examined under a dissecting microscope to identify males (enlarged second gnathopods) and females, and the number of juveniles was recorded.

[1] = system: Lampsilis siliquoidea glochidia; experiment: Acute 48 h aqueous toxicity test with glochidia (viability); type: in vivo; conditions: for Viability (mean, % (standard deviation)): 48-h aqueous exposure, n = 4
Description: (§2) Aqueous acute toxicity tests were based on the American Society for Testing and Materials (ASTM [2013]) protocols for conducting toxicity tests with early life stages of freshwater mussels. Gravid female L. siliquoidea were collected from an established reference site in the Maitland River (ON) and kept in ECCC’s Aquatic Life Research Facility (Canada Centre for Inland Waters, Burlington, ON). Glochidia were removed from gravid females and their viability (i.e., ability to close their valves) was assessed. Glochidia from a minimum of three gravid mussels whose glochidia exceeded 90% viability were pooled and exposed to a geometric series of nominal concentrations (0, 0.0025, 0.025, 0.25, 2.5, 25 mg/L) of either FIN or MGA plus a solvent control. Tests were conducted in 250-mL glass beakers (unaerated and unfed) with culture water. After 24 and 48 h of exposure, glochidia viability was assessed in a minimum of 100 glochidia per replicate (four replicates). Water samples were collected at the beginning and end of the tests, and frozen pending chemical analysis.

[2] = as above; type: in vivo, Lampsilis siliquoidea; conditions: Lampsilis siliquoidea, in vivo, other: aqueous (water-only) exposure, 48-h aqueous exposure, n = 4, read-out: Viability (mean, % (standard deviation))
Description: as §2

mayfly Hexagenia spp. [3] = conditions: Hexagenia spp. (mixture of H. rigida and H. limbata), in vivo, 42 days, pH 8.3
Description: (§3) Nominal concentrations were 10, 30, 100, 300, and 1000 mg/kg for juvenile freshwater mussels and 3, 10, 30, 100, and 300 mg/kg for amphipods and mayflies, and were based on the results of range-finding tests (detailed in Supplementary Materials). […] For each PPCP, the concentration of solvent used was consistent across treatments.
(§4) The sediments were mixed for 24 h, left open in a fume hood for 3–5 days for the acetone to evaporate, and then stored at 4 °C until use. […] All beakers were aerated for 1 week under testing conditions prior to the addition of organisms, and throughout the tests. Duration of toxicity tests varied depending on the species and endpoint of interest (see below). Water quality parameters were collected for each test (Table S1).
(§5) Briefly, eggs of Hexagenia spp. […] Prior to testing, eggs were hatched and nymphs were grown in aerated 20-L aquaria containing culture sediment (depth: 2.5 cm) and culture water (depth: 10 cm) for 6 to 7 weeks.
(§6) Ten mayflies (5–8 mg wet weight) were added to each beaker (three replicates for each control and PPCP concentration). Two tests were conducted for each compound. […] At the end of the test, mayflies were removed and surviving animals from each of the three replicates were counted and weighed.

amphipods H. azteca = experiment: 21 d range-finding sediment test, amphipods; type: in vivo, Hyalella azteca; conditions: n = 3
Description: as §1
Amphipods were fed 2.5 mg Tetra-min twice per week during weeks one and two, and three times during week three. At the end of the test, amphipods were removed and the survivors were counted and weighed.

[4] = natural and simulated sunlight; ref Qu et al. [2012]; cited from earlier work
[5] = system: juvenile mussels L. siliquoidea; experiment: 21 d range-finding sediment test, juvenile mussels; type: in vivo
Description: as §1
After 21 d, mussels were recovered and transferred to Petri dishes filled with clean sand and housed in large trays of aerated culture water to assess burial ability.

[6] = system: African clawed frog (Xenopus laevis) larvae; parameters: method as in Finch et al. [2013]; conditions: chronic exposure to 100 ng/L MGA; ref Finch et al. [2013]; cited from earlier work
[7] = system: goldfish (Carassius auratus); parameters: method as in Upjohn Company [1996]; conditions: 1 mg/L MGA for 21 days; ref Upjohn Company [1996]; cited from earlier work
mayfly Hexagenia spp. [8] = experiment: Chronic 42-day sediment test with mayflies (survival, growth); conditions: measured, n = 6
Description: as §3, §4, §5, §6

[9] = system: glochidia of L. siliquoidea; parameters: method as in Gilroy et al. ([2017]); conditions: ref Gilroy et al. ([2017]); cited from earlier work
D. magna [10] = conditions: ref Minguez et al. ([2014]); cited from earlier work
juvenile L. siliquoidea = system: juvenile L. siliquoidea; parameters: method as in Gilroy et al. ([2017]); conditions: ref Gilroy et al. ([2017]); cited from earlier work
D. magna [11] = system: D. magna; parameters: method as in Haeba et al. [2008]; conditions: ref Haeba et al. [2008], cited from earlier work
[12] = Hyalella azteca, in vivo, 42 days, pH 8.3
[13] = 0.1 mg/kg dry weight nominal, n = 3
[14] = 1 mg/kg dry weight nominal, n = 3
[15] = 10 mg/kg dry weight nominal, n = 3
[16] = 100 mg/kg dry weight nominal, n = 3

C=C1C[C@H]2[C@@H]3C=C(C)C4=CC(=O)CC[C@]4(C)[C@H]3CC[C@]2(C)[C@@]1(OC(C)=O)C(C)=O [Melengestrol acetate]
Growth, mean (SEM) (mayflies Hexagenia spp.; 0.1 mg/kg dry weight nominal): 33 (0.2) mg wet weight
Survival (%), mean (SEM) (mayflies Hexagenia spp.; 0.1 mg/kg dry weight nominal): 100 (0.0) %
Growth, mean (SEM) (mayflies Hexagenia spp.; 1 mg/kg dry weight nominal): 30 (0.9) mg wet weight
Survival (%), mean (SEM) (mayflies Hexagenia spp.; 1 mg/kg dry weight nominal): 97 (3.3) %
Growth, mean (SEM) (mayflies Hexagenia spp.; 10 mg/kg dry weight nominal): 31 (1.2) mg wet weight
Survival (%), mean (SEM) (mayflies Hexagenia spp.; 10 mg/kg dry weight nominal): 100 (0.0) %
Growth, mean (SEM) (mayflies Hexagenia spp.; 100 mg/kg dry weight nominal): 20^a (0.7) mg wet weight
Survival (%), mean (SEM) (mayflies Hexagenia spp.; 100 mg/kg dry weight nominal): 100 (0.0) %
Growth, mean (SEM) (mayflies Hexagenia spp.; 1000 mg/kg dry weight nominal): 7.4^a (0.24) mg wet weight
Survival (%), mean (SEM) (mayflies Hexagenia spp.; 1000 mg/kg dry weight nominal): 37^a (8.8) %
ChV, sediment (amphipod Hyalella azteca; [12]): 53 mg/kg
LOEC, overlying water (amphipod Hyalella azteca; [12]): 0.5 mg/L
LOEC, sediment (amphipod Hyalella azteca; [12]): 76 mg/kg
NOEC, overlying water (amphipod Hyalella azteca; [12]): 0.25 mg/L
Females (percent of surviving amphipods), mean (SEM) (amphipod Hyalella azteca; melengestrol acetate 76 mg/kg dw sediment (0.5 mg/L water), measured, 42-day, n = 10): 60 (4.5) %
NOEC, sediment (amphipod Hyalella azteca; survival, growth, 42-day, dry weight sediment, measured): 37 mg/kg
Decrease in viability ([1]; 4 mg/L MGA, water-only): 20%
Viability (mean, % (standard deviation)) ([1]; 0.05 mg/L mean measured): 82 (2.1)^b %
Viability (mean, % (standard deviation)) ([1]; 1.9 mg/L mean measured): 82 (3.3)^b %
NOEC ([1]; Lampsilis siliquoidea, in vivo, 48 h): 1.9 mg/L^b
ChV (geometric mean of NOEC and LOEC) ([1]; viability, acute 48 h): 2.8 mg/L
viability at 48 h, 0.005 mg/L ([2]; 0.005 mg/L mean measured): 86%
viability at 48 h, 0.05 mg/L ([2]; 0.05 mg/L mean measured): 82%
viability at 48 h, 0.3 mg/L ([2]; 0.3 mg/L mean measured): 85%
viability at 48 h, 1.9 mg/L ([2]; 1.9 mg/L mean measured): 82%
viability at 48 h, 4 mg/L ([2]; 4 mg/L mean measured): 70%
ChV, overlying water (mayfly Hexagenia spp. [3]): 0.1 mg/L
ChV, sediment (mayfly Hexagenia spp. [3]): 21 mg/kg
LOEC, overlying water (mayfly Hexagenia spp. [3]): 0.25 mg/L
LOEC, sediment (mayfly Hexagenia spp. [3]): 37 mg/kg
NOEC, overlying water (mayfly Hexagenia spp. [3]): 0.04 mg/L
NOEC, sediment (mayfly Hexagenia spp. [3]): 12 mg/kg
Growth, mean (SEM) (amphipods H. azteca; 0.1 mg/kg dry weight nominal): 1.0 (0.09) mg wet weight
Survival (%), mean (SEM) (amphipods H. azteca; 0.1 mg/kg dry weight nominal): 100 (3.8) %
Growth, mean (SEM) (amphipods H. azteca; 1 mg/kg dry weight nominal): 1.0 (0.07) mg wet weight
Survival (%), mean (SEM) (amphipods H. azteca; 1 mg/kg dry weight nominal): 100 (0.0) %
Growth, mean (SEM) (amphipods H. azteca; 10 mg/kg dry weight nominal): 1.1 (0.10) mg wet weight
Survival (%), mean (SEM) (amphipods H. azteca; 10 mg/kg dry weight nominal): 95 (2.2) %
Growth, mean (SEM) (amphipods H. azteca; 100 mg/kg dry weight nominal): 0.7 (0.15) mg wet weight
Survival (%), mean (SEM) (amphipods H. azteca; 100 mg/kg dry weight nominal): 95 (2.2) %
Survival (%), mean (SEM) (amphipods H. azteca; 1000 mg/kg dry weight nominal): 0^a (0.0) %
Direct photolysis half-life [4]: approximately 45 min
Burial (%), mean (SEM) [5, 13]: 85 (4.8) %
Survival (%), mean (SEM) [5, 13]: 93 (3.3) %
Burial (%), mean (SEM) [5, 14]: 97 (7.0) %
Survival (%), mean (SEM) [5, 14]: 97 (3.3) %
Burial (%), mean (SEM) [5, 15]: 90(5.8) %
Survival (%), mean (SEM) [5, 15]: 97 (3.3) %
Burial (%), mean (SEM) [5, 16]: 90 (0.0) %
Survival (%), mean (SEM) [5, 16]: 100 (0.0) %
Burial (%), mean (SEM) ([5]; 1000 mg/kg dry weight nominal, n = 3): 68 (5.8) %
Survival (%), mean (SEM) ([5]; 1000 mg/kg dry weight nominal, n = 3, 1000 mg/kg): 77 (8.8) %
Larval size (length and weight) vs controls [6]: significantly smaller
Mortality or developmental effects [6]: no mortality or developmental effects were observed
Toxicity [7]: No toxicity was observed
Survival (percent of initial animals added), mean (SEM) (mayfly Hexagenia spp. [8]; melengestrol acetate 1 mg/kg dw sediment (0.002 mg/L water)): 95 (2.2) %
Survival (percent of initial animals added), mean (SEM) (mayfly Hexagenia spp. [8]; melengestrol acetate 12 mg/kg dw sediment (0.04 mg/L water)): 90 (2.6) %
Survival (percent of initial animals added), mean (SEM) (mayfly Hexagenia spp. [8]; melengestrol acetate 37 mg/kg dw sediment (0.25 mg/L water)): 93 (2.1) %
Survival (percent of initial animals added), mean (SEM) (mayfly Hexagenia spp. [8]; melengestrol acetate 76 mg/kg dw sediment (0.5 mg/L water)): 92 (4.0) %

CN(C)CCC=C1c2ccccc2CCc2ccccc21 [amitriptyline]
24-h LC50 [9]: 0.3 µg/mL
48-h EC50 (D. magna [10]): 4.8 µg/mL
14-day LC50 (juvenile L. siliquoidea): 0.4 µg/mL

CC(C)C(=O)Nc1ccc([N+](=O)[O-])c(C(F)(F)F)c1 [flutamide]
Effect on maturation and embryonic development (D. magna [11]; concentrations up to 1 mg/L): delayed the maturation of female D. magna and inhibited the embryonic development of neonates
48-h EC50 for immobilization (D. magna [11]): 2.7 µg/mL

CN[C@H]1CC[C@@H](c2ccc(Cl)c(Cl)c2)c2ccccc21 [sertraline]
24-h LC50 [9]: 0.06 µg/mL
28-day LC50 (juvenile L. siliquoidea): 0.04 µg/mL

— article PMC7679302 (Environmental Science and Pollution Research International, 2020)
